{"source": "patent US20240315956A1", "about": "“METHOD OF PRODUCTION OF THE COMPOSITION OF CYCLOOXYGENASE-2 (COX-2) INHIBITORS” (US NANO FOOD & DRUG INC, priority 2021, published 2024)", "origin": "cited, not measured here", "data": [{"smiles": "Cc1ccc(-c2cc(C(F)(F)F)nn2-c2ccc(S(N)(=O)=O)cc2)cc1", "note": "[Celecoxib]", "values": [{"measurement": "solubility in water", "value": "practically insoluble in water"}]}, {"smiles": "CCCN1CC(c2ccc(S(C)(=O)=O)cc2)=C(c2ccc(C)cc2)C1=O", "note": "[Imrecoxib]", "values": [{"measurement": "solubility in water", "value": "practically insoluble in water"}]}, {"smiles": "CCC1(C)CC(=O)NC1=O", "note": "(stereo not shown) [ethosuximide]", "values": [{"measurement": "pKa", "value": 10.73}]}, {"smiles": "Nc1nnc(-c2cccc(Cl)c2Cl)c(N)n1", "note": "[lamotrigine]", "values": [{"measurement": "pKa", "value": 15}]}]}
